One assay deals with T1, PP2AA1 (Arabidopsis thaliana, UniProt Q38845).
T1 construct: recombinant His-PP2AA1 (pET28a, coding region)
T1 sequence (Q38845 1-588): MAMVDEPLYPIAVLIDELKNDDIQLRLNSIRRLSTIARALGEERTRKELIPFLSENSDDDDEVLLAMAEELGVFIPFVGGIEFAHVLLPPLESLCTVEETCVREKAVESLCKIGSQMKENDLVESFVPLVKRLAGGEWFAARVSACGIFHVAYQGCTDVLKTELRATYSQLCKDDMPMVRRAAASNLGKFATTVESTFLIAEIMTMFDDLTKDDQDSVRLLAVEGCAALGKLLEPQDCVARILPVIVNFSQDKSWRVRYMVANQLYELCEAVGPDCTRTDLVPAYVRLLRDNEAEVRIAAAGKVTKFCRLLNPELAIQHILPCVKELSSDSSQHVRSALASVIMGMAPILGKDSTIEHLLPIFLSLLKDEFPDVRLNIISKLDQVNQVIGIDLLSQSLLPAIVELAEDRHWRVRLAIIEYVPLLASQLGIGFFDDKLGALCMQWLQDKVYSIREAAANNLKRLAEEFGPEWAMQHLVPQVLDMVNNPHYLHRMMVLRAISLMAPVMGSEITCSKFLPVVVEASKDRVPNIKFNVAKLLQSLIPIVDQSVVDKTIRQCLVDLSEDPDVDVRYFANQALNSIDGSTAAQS
Kind of assay: SPR, steady state; SA-f immobilized on CM5 chip, His-PP2AA1 flowed over. The assay is classed as binding. From the text:
SPR, steady state; SA-f immobilized on CM5 chip, His-PP2AA1 flowed over on PP2AA1 | An active synthetic SA analog (SA-f) was immobilized on a CM-5 sensor chip, and different concentrations of His-PP2AA1 were applied
A general note: Surface plasmon resonance follows binding to a sensor surface in real time, without labels.

For another assay, the target named is T2, PP2AA3 (Arabidopsis thaliana, UniProt Q38951).
T2 construct: recombinant His-PP2AA3 (pET28a, coding region)
T2 sequence (Q38951 1-587): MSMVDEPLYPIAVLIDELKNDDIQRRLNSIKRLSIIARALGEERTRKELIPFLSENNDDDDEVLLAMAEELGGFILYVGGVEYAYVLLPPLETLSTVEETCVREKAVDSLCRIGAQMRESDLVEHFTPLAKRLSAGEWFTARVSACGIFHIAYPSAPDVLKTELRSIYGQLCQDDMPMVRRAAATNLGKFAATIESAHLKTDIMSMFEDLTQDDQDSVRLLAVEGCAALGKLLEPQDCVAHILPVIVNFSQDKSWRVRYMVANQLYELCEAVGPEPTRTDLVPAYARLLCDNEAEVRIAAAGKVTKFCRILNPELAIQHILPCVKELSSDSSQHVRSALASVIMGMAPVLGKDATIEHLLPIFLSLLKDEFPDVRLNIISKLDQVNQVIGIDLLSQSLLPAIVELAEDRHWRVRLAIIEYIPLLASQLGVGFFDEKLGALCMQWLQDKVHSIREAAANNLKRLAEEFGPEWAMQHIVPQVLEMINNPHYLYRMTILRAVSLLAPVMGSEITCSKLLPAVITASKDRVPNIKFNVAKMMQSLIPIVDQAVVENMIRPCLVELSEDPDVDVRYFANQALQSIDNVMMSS
Kind of assay: SPR, steady state; SA-f immobilized on CM5 chip, His-PP2AA3 flowed over. The class given is binding. From the text: SPR, steady state; SA-f immobilized on CM5 chip, His-PP2AA3 flowed over on PP2AA3 | The same sensor chip as above was used, and different concentrations of His-PP2AA3 were applied.

In general, Kd refers to the free concentration of one partner at which half of the binding sites on the other are occupied at equilibrium, for simple one-to-one binding. Low values mean a tighter complex, high ones a looser complex. On to `NCCCCCOc1ccc(O)c(C(=O)O)c1` [SA-f, 5-((5-aminopentyl)oxy)-2-hydroxybenzoic acid], for which the dissociation constant (Kd) was determined as 3620 nM on PP2AA1 and 1920 nM at PP2AA3.

The record behind these values is paper PMC6997888, “Salicylic Acid Targets Protein Phosphatase 2A to Attenuate Growth in Plants” (Current Biology, 2020).
